# From ChEMBL document CHEMBL5518182, “Discovery and development of BI 1265162, an ENaC inhibitor for the treatment of cystic fibrosis” (Eur J Med Chem, 2024)
# The source made the active and inactive calls. The calls are words filed in the database; no cut-off is given here.
# Key:
# [1] = molecular target: CaV3.2 (Homo sapiens, UniProt O95180); assay: Inhibition of CaV3.2 (unknown origin) at 10 uM relative to control; assay type: toxicity
# [2] = Solubility of compound at pH 5; assay type: physicochemical; settings: buffer
# [3] = Metabolic stability in human liver microsomes assessed as liver blood flow at 1 uM by LC-MS/MS analysis; assay type: ADME, Microsome; settings: read-out: QH
# [4] = molecular target: Cytochrome P450 2C19 (Homo sapiens, UniProt P33261); assay: Inhibition of CYP2C19 in human liver microsomes using (S)-mephenytoin as substrate in presence of NADPH by LC-MS/MS analysis; assay type: ADME, Microsome
# Chain of Cytochrome P450 2C19 (P33261 whole entry): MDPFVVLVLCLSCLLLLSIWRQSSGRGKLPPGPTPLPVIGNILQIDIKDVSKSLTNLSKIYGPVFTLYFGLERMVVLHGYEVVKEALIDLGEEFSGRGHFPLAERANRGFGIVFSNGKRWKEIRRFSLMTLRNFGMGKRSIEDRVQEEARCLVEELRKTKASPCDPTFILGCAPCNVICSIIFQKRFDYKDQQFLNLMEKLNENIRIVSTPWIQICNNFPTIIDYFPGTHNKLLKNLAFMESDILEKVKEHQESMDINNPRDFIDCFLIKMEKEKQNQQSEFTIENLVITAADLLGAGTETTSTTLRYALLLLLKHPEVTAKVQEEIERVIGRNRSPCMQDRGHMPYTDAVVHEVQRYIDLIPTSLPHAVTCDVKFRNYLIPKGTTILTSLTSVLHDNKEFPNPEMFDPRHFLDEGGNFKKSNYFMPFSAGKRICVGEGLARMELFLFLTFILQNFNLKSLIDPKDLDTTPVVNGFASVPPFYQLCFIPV
# [5] = Metabolic stability in rat liver microsomes assessed as liver blood flow at 1 uM by LC-MS/MS analysis; assay type: ADME, Microsome; settings: read-out: QH
# [6] = Cytotoxicity against human U-937 cells by MTT assay; assay type: toxicity, cell-based
# [7] = molecular target: Cytochrome P450 3A4 (Homo sapiens, UniProt P08684); assay: Inhibition of CYP3A4 in human liver microsomes using midazolam as substrate in presence of NADPH by LC-MS/MS analysis; assay type: ADME, Microsome
# Chain of Cytochrome P450 3A4 (P08684 whole entry): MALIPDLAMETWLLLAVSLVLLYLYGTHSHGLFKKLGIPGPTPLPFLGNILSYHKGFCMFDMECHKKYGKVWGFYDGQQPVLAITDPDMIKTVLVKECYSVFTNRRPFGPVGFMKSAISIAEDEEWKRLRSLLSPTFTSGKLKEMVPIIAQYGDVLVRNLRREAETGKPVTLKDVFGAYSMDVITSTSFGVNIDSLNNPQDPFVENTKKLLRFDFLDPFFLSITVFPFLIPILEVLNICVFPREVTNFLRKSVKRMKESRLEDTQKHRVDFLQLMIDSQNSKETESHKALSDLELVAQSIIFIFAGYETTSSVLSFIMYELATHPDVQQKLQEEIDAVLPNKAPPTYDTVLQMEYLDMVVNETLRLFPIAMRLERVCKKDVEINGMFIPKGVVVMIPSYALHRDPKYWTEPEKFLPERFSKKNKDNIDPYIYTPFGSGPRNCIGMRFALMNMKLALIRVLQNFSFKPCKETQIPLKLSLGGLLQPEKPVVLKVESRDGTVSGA
# [8] = molecular target: T1, Cytochrome P450 1A2 (Homo sapiens, UniProt P05177); assay: Inhibition of CYP1A2 in human liver microsomes in presence of NADPH by LC-MS/MS analysis; assay type: ADME, Microsome
# T1 sequence (P05177 whole entry): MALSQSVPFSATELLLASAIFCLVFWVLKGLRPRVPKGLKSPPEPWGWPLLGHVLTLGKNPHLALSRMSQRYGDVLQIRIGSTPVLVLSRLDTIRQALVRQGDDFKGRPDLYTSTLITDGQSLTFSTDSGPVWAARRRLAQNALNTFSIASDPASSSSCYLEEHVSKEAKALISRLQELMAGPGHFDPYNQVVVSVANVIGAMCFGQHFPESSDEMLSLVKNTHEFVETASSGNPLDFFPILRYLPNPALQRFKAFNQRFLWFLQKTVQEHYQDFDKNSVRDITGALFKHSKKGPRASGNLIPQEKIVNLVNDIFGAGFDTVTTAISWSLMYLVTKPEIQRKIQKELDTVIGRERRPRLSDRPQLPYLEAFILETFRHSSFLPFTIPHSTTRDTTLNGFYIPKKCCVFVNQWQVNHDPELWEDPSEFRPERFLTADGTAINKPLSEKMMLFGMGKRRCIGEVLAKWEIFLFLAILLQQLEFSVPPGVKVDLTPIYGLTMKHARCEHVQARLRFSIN
# [9] = Genotoxicity in Salmonella typhimurium TA1535 incubated for 48 hrs in presence of rat liver S9 fraction by Ames test; assay type: toxicity, subcellular; settings: salmonella enterica subsp. enterica serovar typhimurium, s9, 48 h
# [10] = Metabolic stability in human hepatocytes assessed as liver blood flow at 1 uM incubated for 6 hrs by HPLC-MS/MS analysis; assay type: ADME, cell-based, Hepatocyte; settings: read-out: QH
# [11] = Permeability of compound by PAMPA assay; assay type: ADME; settings: read-out: permeability
# [12] = Lipophilicity, logD of compound at pH 7.4; assay type: physicochemical; settings: buffer
# [13] = Permeability across basal to apical side in human Calu-3 cells at 0.1 to 300 uM measured upto 2 hrs by HPLC-MS/MS analysis; assay type: ADME, cell-based; settings: dose 0.1-300 µM, read-out: permeability
# [14] = Drug uptake in Han Wistar rat lung at 8 ug/kg, IT(Intratracheal) measured after 3 hrs by HPLC-TMS analysis; assay type: ADME, tissue-based; settings: in vivo, inhaled_or_intranasal, 0.008 mg/kg, dose 8 µg/kg
# [15] = Cytotoxicity against rat hepatocytes by LDH assay; assay type: toxicity, cell-based, Hepatocyte
# [16] = Clearance in Han Wistar rat assessed as liver blood flow at 0.5 umol/kg; assay type: ADME, tissue-based; settings: in vivo, at 0.5 µmol/kg
# [17] = molecular target: CaV3.1 (Homo sapiens, UniProt O43497); assay: Inhibition of CaV3.1 (unknown origin) at 10 uM relative to control; assay type: toxicity
# [18] = molecular target: Cytochrome P450 2C9 (Homo sapiens, UniProt P11712); assay: Inhibition of CYP2C9 in human liver microsomes using diclofenac as substrate in presence of NADPH by LC-MS/MS analysis; assay type: ADME, Microsome
# Chain of Cytochrome P450 2C9 (P11712 whole entry): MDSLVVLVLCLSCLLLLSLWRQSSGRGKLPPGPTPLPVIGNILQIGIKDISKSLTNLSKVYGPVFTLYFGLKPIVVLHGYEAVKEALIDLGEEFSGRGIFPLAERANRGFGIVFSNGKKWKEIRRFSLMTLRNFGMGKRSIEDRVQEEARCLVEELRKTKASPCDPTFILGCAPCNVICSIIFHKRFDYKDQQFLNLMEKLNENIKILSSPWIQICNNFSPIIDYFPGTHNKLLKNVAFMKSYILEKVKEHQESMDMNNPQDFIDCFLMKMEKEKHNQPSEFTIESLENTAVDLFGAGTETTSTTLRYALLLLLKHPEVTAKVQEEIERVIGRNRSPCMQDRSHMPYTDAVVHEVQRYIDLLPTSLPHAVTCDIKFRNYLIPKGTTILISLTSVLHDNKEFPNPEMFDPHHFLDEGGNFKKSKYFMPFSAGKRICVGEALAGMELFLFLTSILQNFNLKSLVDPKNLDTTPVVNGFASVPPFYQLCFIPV
# [19] = Genotoxicity in Salmonella typhimurium TA1537 incubated for 48 hrs in presence of rat liver S9 fraction by Ames test; assay type: toxicity, subcellular; settings: salmonella enterica subsp. enterica serovar typhimurium, s9, 48 h
# [20] = Metabolic stability in rat hepatocytes assessed as liver blood flow at 1 uM incubated for 6 hrs by HPLC-MS/MS analysis; assay type: ADME, cell-based, Hepatocyte; settings: read-out: QH
# [21] = Genotoxicity in Salmonella typhimurium TA100 incubated for 48 hrs in presence of rat liver S9 fraction by Ames test; assay type: toxicity, subcellular; settings: salmonella enterica subsp. enterica serovar typhimurium, s9, 48 h
# [22] = Oral bioavailability in Han Wistar rat; assay type: ADME, organism-based; settings: in vivo
# [23] = molecular target: CFTR (Homo sapiens, UniProt P13569); assay: Inhibition of CFTR (unknown origin) at 10 uM relative to control; assay type: toxicity
# [24] = Genotoxicity in Escherichia coli WP2 uvrA (pKM 101) incubated for 48 hrs in presence of rat liver S9 fraction by Ames test; assay type: toxicity, subcellular; settings: s9, 48 h
# [25] = Genotoxicity in Salmonella typhimurium TA98 incubated for 48 hrs in presence of rat liver S9 fraction by Ames test; assay type: toxicity, subcellular; settings: salmonella enterica subsp. enterica serovar typhimurium, s9, 48 h
# [26] = Cytotoxicity against human 16HBE14o- cells by plasma damage based analysis; assay type: toxicity, cell-based
# [27] = Permeability across apical to basal side in human Caco-2 cells by LC-MS/MS analysis; assay type: ADME, cell-based; settings: read-out: permeability
# [28] = molecular target: Cytochrome P450 2D6 (Homo sapiens, UniProt P10635); assay: Inhibition of CYP2D6 in human liver microsomes using dextromethorphan as substrate in presence of NADPH by LC-MS/MS analysis; assay type: ADME, Microsome
# Chain of Cytochrome P450 2D6 (P10635 whole entry): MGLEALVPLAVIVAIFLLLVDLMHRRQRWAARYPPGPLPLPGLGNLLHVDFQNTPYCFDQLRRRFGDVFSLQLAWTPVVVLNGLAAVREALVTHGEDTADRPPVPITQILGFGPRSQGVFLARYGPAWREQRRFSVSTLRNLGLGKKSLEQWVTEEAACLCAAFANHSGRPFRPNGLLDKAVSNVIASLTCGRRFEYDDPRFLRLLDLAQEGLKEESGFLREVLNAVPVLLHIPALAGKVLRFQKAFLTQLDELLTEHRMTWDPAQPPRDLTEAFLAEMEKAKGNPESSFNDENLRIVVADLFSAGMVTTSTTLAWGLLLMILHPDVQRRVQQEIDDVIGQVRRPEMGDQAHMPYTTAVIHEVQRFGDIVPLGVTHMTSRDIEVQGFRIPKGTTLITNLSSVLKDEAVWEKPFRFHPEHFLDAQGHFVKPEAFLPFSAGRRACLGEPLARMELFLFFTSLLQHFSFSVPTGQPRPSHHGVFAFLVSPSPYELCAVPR
# [29] = MRT in Han Wistar rat; assay type: ADME; settings: in vivo
# [30] = molecular target: BK channel (Homo sapiens, UniProt Q12791); assay: Inhibition of BK channel (unknown origin) at 10 uM relative to control; assay type: toxicity
# Chain of BK channel (Q12791 whole entry): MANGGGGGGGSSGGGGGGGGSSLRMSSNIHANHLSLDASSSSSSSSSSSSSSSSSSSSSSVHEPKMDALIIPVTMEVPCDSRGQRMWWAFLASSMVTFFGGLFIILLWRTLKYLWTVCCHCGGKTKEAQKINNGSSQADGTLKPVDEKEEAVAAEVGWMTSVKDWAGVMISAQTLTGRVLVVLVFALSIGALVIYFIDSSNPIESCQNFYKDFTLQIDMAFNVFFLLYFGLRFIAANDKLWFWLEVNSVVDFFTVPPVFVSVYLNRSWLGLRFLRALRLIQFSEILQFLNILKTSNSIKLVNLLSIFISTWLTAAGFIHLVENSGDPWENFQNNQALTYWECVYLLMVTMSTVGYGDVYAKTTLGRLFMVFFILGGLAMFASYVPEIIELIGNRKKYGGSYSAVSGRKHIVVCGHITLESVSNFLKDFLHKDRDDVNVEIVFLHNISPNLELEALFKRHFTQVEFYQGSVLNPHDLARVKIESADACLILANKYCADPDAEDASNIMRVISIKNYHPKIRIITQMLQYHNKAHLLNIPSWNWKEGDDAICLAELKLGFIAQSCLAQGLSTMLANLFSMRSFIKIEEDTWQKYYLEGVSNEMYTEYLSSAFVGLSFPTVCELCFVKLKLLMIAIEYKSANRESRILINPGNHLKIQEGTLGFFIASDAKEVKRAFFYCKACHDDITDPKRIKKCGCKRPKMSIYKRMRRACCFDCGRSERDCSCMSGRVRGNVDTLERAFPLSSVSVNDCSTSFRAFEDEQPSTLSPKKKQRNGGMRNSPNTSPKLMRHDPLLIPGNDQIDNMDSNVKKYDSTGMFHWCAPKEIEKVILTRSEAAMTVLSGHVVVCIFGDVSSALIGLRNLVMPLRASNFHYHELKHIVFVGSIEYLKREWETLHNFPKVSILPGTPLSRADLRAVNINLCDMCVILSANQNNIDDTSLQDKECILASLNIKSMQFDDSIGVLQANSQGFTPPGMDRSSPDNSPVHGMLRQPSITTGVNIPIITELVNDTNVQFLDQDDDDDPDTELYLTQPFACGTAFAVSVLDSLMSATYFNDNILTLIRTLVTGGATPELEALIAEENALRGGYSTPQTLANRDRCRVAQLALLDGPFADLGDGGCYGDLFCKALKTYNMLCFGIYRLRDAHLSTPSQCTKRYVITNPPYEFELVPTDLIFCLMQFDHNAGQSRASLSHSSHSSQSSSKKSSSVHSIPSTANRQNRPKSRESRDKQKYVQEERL
# [31] = system: Rattus norvegicus; assay: Acute effect on Han Wistar rat model of lung fluid absorption administered intratracheally measured after 3 hrs; assay type: functional; settings: route it(Intratracheal)
# [32] = system: Lung; assay: Inhibition of lung water resorption in Wistar rat at 3 ug/kg, IT(Intratracheal) incubated for 3 hrs relative to control; assay type: functional
# [33] = Drug uptake in Han Wistar rat lung at 10 ug/kg, IT(Intratracheal) measured after 3 hrs by HPLC-TMS analysis; assay type: ADME, tissue-based; settings: in vivo, inhaled_or_intranasal, 0.01 mg/kg, dose 10 µg/kg
# [34] = system: Rattus norvegicus; assay: Effect on Han Wistar rat model of lung fluid absorption at ED70 administered intratracheally measured after 20 hrs; assay type: functional; settings: route it(Intratracheal)
# [35] = system: Rattus norvegicus; assay: Upregulation of serum aldosterone level in Han Wistar rat model of lung fluid absorption at 3 ug/kg, IT(Intratracheal) measured after 3 hrs relative to control; assay type: functional; settings: dose 3 µg/kg
# [36] = Inhibition of ENaC in mouse M1 cells upto 10 uM by chamber assay; assay type: cell-based; settings: m1 cell
# [37] = molecular target: Acetylcholinesterase (Homo sapiens) (UniProt P22303); assay: Inhibition of AChE (unknown origin) at 10 uM relative to control
# Chain of Acetylcholinesterase (Homo sapiens) (P22303 whole entry): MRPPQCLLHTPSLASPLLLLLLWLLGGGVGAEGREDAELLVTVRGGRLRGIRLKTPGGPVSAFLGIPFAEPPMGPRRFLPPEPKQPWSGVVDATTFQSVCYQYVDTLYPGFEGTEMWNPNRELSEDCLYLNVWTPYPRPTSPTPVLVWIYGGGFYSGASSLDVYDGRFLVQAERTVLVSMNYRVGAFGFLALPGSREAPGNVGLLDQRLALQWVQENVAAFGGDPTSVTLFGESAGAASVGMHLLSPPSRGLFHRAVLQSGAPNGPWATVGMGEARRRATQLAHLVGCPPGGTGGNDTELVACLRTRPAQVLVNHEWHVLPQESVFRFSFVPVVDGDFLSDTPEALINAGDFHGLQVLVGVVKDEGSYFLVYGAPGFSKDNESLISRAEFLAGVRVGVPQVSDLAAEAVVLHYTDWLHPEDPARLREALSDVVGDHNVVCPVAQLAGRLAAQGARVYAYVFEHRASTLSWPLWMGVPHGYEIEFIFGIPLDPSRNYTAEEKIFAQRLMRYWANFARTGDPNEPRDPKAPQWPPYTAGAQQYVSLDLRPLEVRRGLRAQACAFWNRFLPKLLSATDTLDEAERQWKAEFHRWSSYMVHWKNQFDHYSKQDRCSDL
# [38] = system: Lung; assay: Inhibition of lung water resorption in Wistar rat at 0.3 ug/kg, IT(Intratracheal) incubated for 3 hrs relative to control; assay type: functional
# [39] = species on record: Rattus norvegicus; assay: Upregulation of serum potassium level in Han Wistar rat; assay type: functional, organism-based
# [40] = system: M1 cell; assay: Inhibition of ENaC-mediated water resorption in mouse M1 cells at 3 uM by radiometric dilution assay relative to control; assay type: cell-based
SMILES,solubility [2] [%],hepatic extraction ratio at 1 µM [3],IC50 [4] [µM],hepatic extraction ratio at 1 µM [5],IC50 [6] [µM],IC50 [7] [µM],IC50 [8] [µM],Activity [9],"hepatic extraction ratio at 6 h, 1 µM [10]",Papp [11] [×10⁻⁶ cm/s],logD [12],"Papp B→A at 2 h, up to 300 µM [13] [×10⁻⁶ cm/s]",IC50 [15] [µM],QH [16] [%],IC50 [18] [µM],Activity [19],"hepatic extraction ratio at 6 h, 1 µM [20]",Activity [21],Activity [24],Activity [25],other results
CCn1c(CNC(=O)c2nc(Cl)cnc2N)[n+](CC)c2ccc(OCC(=O)NCCOCP(C)(C)=O)cc21,> 5,< 0.23,> 50,< 0.23,> 800,> 50,> 50,Non-Toxic,0.17,< 0.05,0.1,0.37,> 800,79,> 50,Non-Toxic,0.28,Non-Toxic,Non-Toxic,Non-Toxic,inhibition at 10 µM [1]: < 50%; Drug uptake [14]: 26%; inhibition at 10 µM [17]: < 50%; bioavailability [22]: < 5%; inhibition at 10 µM [23]: < 50%; IC50 [26]: > 800 µM; Papp A→B [27]: 0.6 ×10⁻⁶ cm/s; IC50 [28]: > 50 µM; MRT [29]: 18 min; inhibition at 10 µM [30]: < 50%
CCn1c(CNC(=O)c2nc(Cl)cnc2N)[n+](CC)c2ccc(C(=O)N(C)CCN(C)C)cc21,> 2,< 0.23,> 50,< 0.23,> 800,> 50,> 50,Non-Toxic,0.2,< 0.02,0.2,< 0.21,> 800,84,> 50,Non-Toxic,0.2,Non-Toxic,Non-Toxic,Non-Toxic,ED50 [31]: 0.1 µg/kg; ED70 [31]: 0.13 µg/kg; inhibition in vivo at 0.003 mg/kg [32]: 33%; Drug uptake [33]: 55%; Efficacy [34]: 39%; Activity [35]: <25%; IC50 [36]: 0.0062 µM; inhibition [37]: 44%; inhibition in vivo at 0.0003 mg/kg [38]: 27%; Activity [39]: inactive; inhibition [40]: 81%; IC50 [26]: > 800 µM; Papp A→B [27]: < 0.2 ×10⁻⁶ cm/s; IC50 [28]: > 50 µM; MRT [29]: 18 min
